The text below walks through data of patent US12612424B2, “HPK1 inhibitors and uses thereof” (Regor Pharmaceuticals, Inc., priority 2019, dated 2026).

For the test, the system named is Human Pan T Cell (IL-2 release). Kind of test: IL2 released by human pan T cell upon anti-CD3/anti-CD28 stimulation (ELISA). The settings on record: human pan T cells; for maximal fold induction / EC (2-fold response): 48 h; for maximal fold induction: read-out: IL-2 Max Fold Response; for EC (2-fold response) / EC2x (nM): concentration of compound that gives 200% IL-2 response (2 folds) over DMSO control; for EC50: IL-2 response, calculated with GraphPad Prism. The class given is cell-based. From the text: For example, Example 5 describes such a functional assay for determining the effect of an HPK1 inhibitor on IL-2 & IFN-γ release upon stimulation of Pan T cells. The secreted IL-2 & IFN-γ can be measured/quantified by standard ELISA assay. Briefly, pan T cells can be isolated from peripheral blood (PB) mononuclear cells (MNCs), or PBMC, using commercially available kits, such as MACS (Miltenyl Biotec) Pan T isolation kit (Cat. No. 130-096-535). Primary human pan-T cells include CD4 and CD8 T cells as well as some gamma/delta T cell subsets. The pan-T cells can be isolated using the negative immunomagnetic separation technique without the use of columns.
Isolated pan-T cells can be dispensed into 96-well plates at 100,000 cells/well, and stimulated with immobilized anti-CD3 antibody and soluable anti-CD28 antibody, or PMA/Ionomycin as the positive control (or culture media as the negative control). Different concentrations of test compounds can be added to the cells to assess the compound effect on cytokine secretion following TCR-stimulation/CD28 co-stimulation. Stimulated cells are incubated for 2 more days, before the supernatant (containing secreted cytokines by pan-T cells) is collected from each well for ELISA assay and quantitation of IL-2 and IFN-γ.
Biology Example 8 Compound Efficacy Study on IL2 & IFN-γ Released by Human Pan T Cell
This example is an assay method that can be used to determine compound effects on IL2 & IFN-γ release using pan T cells and ELISA assay format.
3. Procedures Procedures for Pan T isolation and Reagent preparation (Day 0): 1. Cell Growth Medium: • RPMI1640: ATCC, Cat #30-2001 • 10% FBS: Gibco, Cat #10099141 • 1% Pen-Strep: Gibco, Cat #15140122 • 1% Non-essential amino: Gibco, Cat #11140050 • Beta-Mercaptoethanol: Gibco, Cat #21985023 2. Pan T Isolation Buffer Preparation:
Prepare a solution containing phosphate-buffered saline (PBS), pH 7.2, 0.5% bovine serum albumin (BSA), and 2 mM EDTA by diluting MACS® BSA Stock Solution (#130-091-376) 20 times with autoMACS® Rinsing Solution. Keep buffer at 4° C. Degas buffer before use, as air bubbles could block the column.
3. Thawing of Frozen PBMC • 1) Pre-heat medium at 37° C. water bath. • 2) Rapidly thaw cells in 37° C. water bath. • 3) Add the pre-warmed medium into 15 mL tube. Transfer cells to the tube. • 4) 300×g centrifuge for 8 min. (centrifuge increase 0, decrease 0). • 5) Wash the PBMC using Rinsing buffer. • 6) Centrifuge PBMC at 300×g for 8 min, wash it twice (centrifuge increase 9, decrease 1). • 7) Resuspend the cells with Pan T cells isolation buffer and count cells number. 4. Pan T Cells Isolation: Cell Staining with Microbead Cocktail • 1) Prepare cells and determine cell number. Filter cells by 70 μm cell strainer. • 2) Resuspend cell pellet in 40 μL of buffer per 10^7 total cells. • 3) Add 10 μL of Pan T Cell Biotin-Antibody Cocktail per 10^7 total cells. • 4) Mix well and incubate for 10 minutes in the refrigerator (ice). • 5) Add 30 μL of buffer per 10^7 total cells. • 6) Add 20 μL of Pan T Cell MicroBead Cocktail per 10^7 total cells. • 7) Mix well and incubate for 15 minutes in the refrigerator (ice). • 8) Proceed to subsequent magnetic cell separation. • Note: a. Work fast, keep cells cold, and use pre-cooled solutions (2-8° C.). b. Volumes for magnetic labeling given are for up to 10′ total cells. When working with fewer cells, use the same volumes as indicated. c. When working with higher cell numbers, scale up all reagent volumes and total volumes accordingly. d. For optimal performance it is important to obtain a single-cell suspension before magnetic labeling. Subsequent Manual Cell Separation: • 1) Place LS Column in the magnetic field of a suitable MACS Separator. For details refer to the respective MACS Column data sheet. • 2) Prepare column by rinsing with 3 mL of buffer. • 3) Apply cell suspension onto the column. Collect flow-through, which represents the enriched T cells. • 4) Wash column with 5 mL of buffer. […]

Setting [1] is: Homo sapiens, T-cell, response of IL-2 over DMSO control, anti-CD3/anti-CD28, 48 hours, ELISA.

What is called EC50 is the midpoint of the concentration-response curve.

Some results are limits rather than exact numbers.

Take `CCOC(=O)CC1(C)CN(c2nc(Nc3cc4c(cc3OC)CCN(C)C4)ncc2Cl)c2ccccc21` (stereo not shown) [Example 149]: the maximal fold induction under setting [1] was less than 2.
Take `CNC(=O)C1(C)CN(c2nc(Nc3cc4c(cc3OC)CCN(C)C4)ncc2Cl)c2ccccc21` (stereo not shown) [Example 122]: the maximal fold induction under setting [1] is less than 2.
Take `CCN1CCc2cc(OC)c(Nc3ncc(Cl)c(N4CC(C)(CC(=O)O)c5ccccc54)n3)cc2C1` (stereo not shown) [Example 157, 2-(1-(5-Chloro-2-((2-ethyl-6-methoxy-1,2,3,4-tetrahydroisoquinolin-7-yl)amino)pyrimidin-4-yl)-3-methylindolin-3-yl)acetic acid]: under “Homo sapiens, T-cell”, the EC (2-fold response) was not above 0.1 µM and the EC50 was not above 100 nM. In addition, under setting [1], the maximal fold induction is more than 2.
As to `COc1cc2c(cc1Nc1ncc(Cl)c(N3CC(C)(C#N)c4ccccc43)n1)CN(C)CC2` (stereo not shown) [Example 121, 1-(5-Chloro-2-((6-methoxy-2-methyl-1,2,3,4-tetrahydroisoquinolin-7-yl)amino)pyrimidin-4-yl)-3-methylindoline-3-carbonitrile], under setting [1], the maximal fold induction is less than 2.
Take `COc1cc2c(cc1Nc1ncc(Cl)c(N3CC(C)(CC(=O)O)c4ccccc43)n1)CN(C)CC2` (single isomer, unassigned) [Example 148]: the EC50 was not above 100 nM. Also, the EC (2-fold response) (Homo sapiens, T-cell) is not above 0.1 µM. Also, the “IL-2 Max Fold Response” value (response of IL-2 over DMSO control, anti-CD3/anti-CD28, 48 hours, ELISA) is more than 2.
For the compound `COc1cc2c(cc1Nc1ncc(Cl)c(N3CCc4ccc(C(F)F)cc43)n1)CN(C)CC2` [Example 91, N-(5-chloro-4-(6-(difluoromethyl)indolin-1-yl)pyrimidin-2-yl)-6-methoxy-2-methyl-1,2,3,4-tetrahydroisoquinolin-7-amine], under setting [1], the maximal fold induction is less than 2.
Take `COC(=O)CC1(C)CN(c2nc(Nc3cc4c(cc3OC)CCN(C)C4)ncc2Cl)c2ccccc21` (stereo not shown) [Example 145]: the maximal fold induction under setting [1] was less than 2.
Still for that read-out and setting: under `COc1cc2c(cc1Nc1ncc(Cl)c(-n3cc(C4(O)COC4)c4ccccc43)n1)CN(C)CC2` [Example 93] stands less than 2.
On to `COc1cc2c(cc1Nc1ncc(Cl)c(N3CC(CC(=O)O)c4ccccc43)n1)CN(C)CC2` (stereo not shown) [Example 128], for which, where the note is “Homo sapiens, T-cell”, the EC (2-fold response) fell in the range of 0.1 to 0.5 µM and the EC50 is 100 to 500 nM. Moreover, the maximal fold induction under setting [1] is more than 2.
On to `COc1ccc2c(c1)N(c1nc(Nc3cc4c(cc3OC)CCN(C)C4)ncc1Cl)CC2C(=O)O` (stereo not shown) [Example 107, 1-(5-Chloro-2-((6-methoxy-2-methyl-1,2,3,4-tetrahydroisoquinolin-7-yl)amino)pyrimidin-4-yl)-6-methoxyindoline-3-carboxylic acid], for which the maximal fold induction under setting [1] is less than 2.
For the compound `COc1cc2c(cc1Nc1ncc(Cl)c(N3CCc4cc(C(F)F)ccc43)n1)CN(C)CC2` [Example 90, N-(5-chloro-4-(5-(difluoromethyl)indolin-1-yl)pyrimidin-2-yl)-6-methoxy-2-methyl-1,2,3,4-tetrahydroisoquinolin-7-amine], under setting [1], the maximal fold induction is less than 2. In addition, the concentration giving a half-maximal response (EC50) (Homo sapiens, T-cell) was more than 1000 nM.
Take `COc1cc2c(cc1Nc1ncc(Cl)c(N3CCc4cc(P(C)(C)=O)ccc43)n1)CN(C)CC2` [Example 86]: the “EC2x (nM)” value is listed as “+ (“+”, for greater than 1 μM)”. Moreover, under setting [1], the maximal fold induction was more than 2. The EC50 (Homo sapiens, T-cell) was 100 to 500 nM.
`COc1cc2c(cc1Nc1ncc(Cl)c(N3CC(C)(CC(=O)O)c4ccccc43)n1)CN(C)C2` (stereo not shown) [Example 159, 2-(1-(5-Chloro-2-((6-methoxy-2-methylisoindolin-5-yl)amino)pyrimidin-4-yl)-3-methylindolin-3-yl)acetic acid]: where the note is “Homo sapiens, T-cell”, the EC (2-fold response) is not above 0.1 µM and the EC50 is not above 100 nM. In addition, under setting [1], the maximal fold induction is more than 2.
Consider `COc1cc2c(cc1Nc1ncc(Cl)c(-n3cc(Cc4nn[nH]n4)c4ccccc43)n1)CN(C)CC2` [Example 135, N-(4-(3-((2H-tetrazol-5-yl)methyl)-1H-indol-1-yl)-5-chloropyrimidin-2-yl)-6-methoxy-2-methyl-1,2,3,4-tetrahydroisoquinolin-7-amine], for which, under setting [1], the maximal fold induction was less than 2. Besides, for the setting “Homo sapiens, T-cell”, the EC50 was more than 1000 nM.
With `COc1cc2c(cc1Nc1ncc(Cl)c(N3CC(C)(CO)c4ccccc43)n1)CN(C)CC2` (stereo not shown) [Example 123], under setting [1], the maximal fold induction is less than 2. Further, under “Homo sapiens, T-cell”, the EC50 is 100 to 500 nM.
As to `COc1cc2c(cc1Nc1ncc(Cl)c(N3CC(C(=O)O)C4(CCCCC4)C3)n1)CN(C)CC2` (stereo not shown) [Example 167, 2-(5-Chloro-2-((6-methoxy-2-methyl-1,2,3,4-tetrahydroisoquinolin-7-yl)amino)pyrimidin-4-yl)-2-azaspiro[4.5]decane-4-carboxylic acid], under “Homo sapiens, T-cell”, the EC (2-fold response) fell in the range of 0.1 to 0.5 µM and the EC50 was 500 to 1000 nM. Moreover, the maximal fold induction under setting [1] is more than 2.
As to `COc1cc2c(cc1Nc1ncc(Cl)c(N3CC(CO)c4ccccc43)n1)CN(C)CC2` (stereo not shown) [Example 87], under setting [1], the maximal fold induction is less than 2. For the setting “Homo sapiens, T-cell”, the EC50 is 100 to 500 nM.
With `COc1cc2c(cc1Nc1ncc(Cl)c(-n3cnc4ccccc43)n1)CN(C)CC2` [Example 9, N-(4-(1H-benzo[d]imidazol-1-yl)-5-chloropyrimidin-2-yl)-6-methoxy-2-methyl-1,2,3,4-tetrahydroisoquinolin-7-amine], the “EC2x (nM)” value is “++ (“++”, for higher values than “+++” but less than or equal to 1 μM)”. In addition, under setting [1], the maximal fold induction is more than 2. In addition, the EC50 (Homo sapiens, T-cell) is 100 to 500 nM.
With `COc1cc2c(cc1Nc1ncc(C#N)c(N3CC(C(=O)O)c4ccccc43)n1)CN(C)CC2` (stereo not shown) [Example 110, 1-(5-Cyano-2-((6-methoxy-2-methyl-1,2,3,4-tetrahydroisoquinolin-7-yl)amino)pyrimidin-4-yl)indoline-3-carboxylic acid], the maximal fold induction under setting [1] was less than 2.
Regarding `COC(=O)C1CN(c2nc(Nc3cc4c(cc3OC)CCN(C)C4)ncc2C(F)F)c2ccccc21` (stereo not shown) [Example 112], under setting [1], the maximal fold induction was less than 2.
Take `COc1cc2c(cc1Nc1ncc(Cl)c(N3CC(C(=O)O)C4(CCCC4)C3)n1)CN(C)CC2` (stereo not shown) [Example 169, 2-(5-Chloro-2-((6-methoxy-2-methyl-1,2,3,4-tetrahydroisoquinolin-7-yl)amino)pyrimidin-4-yl)-2-azaspiro[4.4]nonane-4-carboxylic acid]: the “EC2x (nM)” value was “++ (“++”, for higher values than “+++” but less than or equal to 1 μM)”. For the same compound, the maximal fold induction under setting [1] was more than 2. Moreover, the EC50 (Homo sapiens, T-cell) is more than 1000 nM.
Regarding `COc1cc2c(cc1Nc1ncc(Cl)c(N3CC(C)(CC(=O)O)c4cc(F)c(F)cc43)n1)CN(C)CC2` (stereo not shown) [Example 154], under “Homo sapiens, T-cell”, the EC (2-fold response) was not above 0.1 µM and the 50% effective concentration (EC50) is not above 100 nM. Further, the maximal fold induction under setting [1] was more than 2.
In the case of `COc1cc2c(cc1Nc1ncc(Cl)c(N3C[C@](C)(C(=O)O)c4ccccc43)n1)CN(C)CC2` (single isomer, unassigned) [Example 118], the maximal fold induction under setting [1] is less than 2. For the same compound, the EC50 (Homo sapiens, T-cell) was more than 1000 nM.
On to `COc1cc2c(cc1Nc1ncc(Cl)c(-c3cn(CC(=O)O)c4ccccc34)n1)CN(C)CC2` [Example 161], for which the “EC2x (nM)” value is on record as “+ (“+”, for greater than 1 μM)”. The maximal fold induction under setting [1] was more than 2. The EC50 (Homo sapiens, T-cell) is more than 1000 nM.
